Among the data in patent US9073853B2, “Cycloalkane carboxylic acid derivatives as CXCR3 receptor antagonists” (Sanofi, priority 2011, dated 2015) are IC50 and inhibition values, retold here.

The structures appear in SMILES notation. Counter-ions that a name gives are not always drawn.

Sequence of human CXCR3-A receptor (P49682 whole entry): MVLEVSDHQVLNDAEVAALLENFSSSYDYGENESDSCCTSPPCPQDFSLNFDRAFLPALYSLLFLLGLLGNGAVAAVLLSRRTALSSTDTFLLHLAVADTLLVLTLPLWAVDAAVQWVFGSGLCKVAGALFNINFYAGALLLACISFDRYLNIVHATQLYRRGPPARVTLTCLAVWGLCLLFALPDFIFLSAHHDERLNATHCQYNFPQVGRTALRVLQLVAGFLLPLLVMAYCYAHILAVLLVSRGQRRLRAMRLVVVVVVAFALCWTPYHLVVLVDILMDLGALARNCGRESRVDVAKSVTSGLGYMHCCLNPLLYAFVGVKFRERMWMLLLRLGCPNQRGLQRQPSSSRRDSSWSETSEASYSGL

For the first test, the target named is human CXCR3-A receptor (Homo sapiens (Human), UniProt P49682). Put plainly: 125I-CXCL10 competition radioligand binding assay. The conditions noted are these: displacement of 125I-CXCL10 from membranes of CHO cells expressing human recombinant CXCR3-A. The gist of the method:
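Membranes from a recombinant cell line expressing human CXCR3-A (10-20 μg protein) were incubated with 125I-CXCL10 and test compound for 60 min at 25° C, then filtered onto PEI-soaked GF/B filters and gamma-counted. IC50 and Hill slope came from four-parameter nonlinear fitting of competition curves.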
On the technique in general: In a radioligand displacement assay an active substance lowers the binding of a labelled ligand.
For orientation: IC50 means the concentration that gives 50% inhibition. For the compound `CCc1cc(CN(C(C)c2ccc(Cl)c(Cl)c2)[C@H]2C[C@@H](C(=O)O)C2)ccc1OCCN1C(=O)CCC1=O` (stereo partly drawn) [Example 139, cis-3-([1-(3,4-Dichloro-phenyl)-ethyl]-{4-[2-(2,5-dioxo-pyrrolidin-1-yl)-ethoxy]-3-ethyl-benzyl}-amino)-cyclobutanecarboxylic acid], the IC50 was found to be 1200 nM.

On to `CCc1cc(CN(C(C)c2ccc(Cl)c(F)c2)[C@H]2C[C@@H](C(=O)O)C2)ccc1OCCN1C(=O)CCC1=O` (stereo partly drawn) [Example 140, cis-3-([1-(4-Chloro-3-fluoro-phenyl)-ethyl]-{4-[2-(2,5-dioxo-pyrrolidin-1-yl)-ethoxy]-3-ethyl-benzyl}-amino)-cyclobutanecarboxylic acid], for which the IC50 amounted to 260 nM.

Regarding `CCC(c1ccc(Cl)c(Cl)c1)N(Cc1ccc(OCCN2C(=O)CCC2=O)c(OC)c1)[C@H]1C[C@@H](C(=O)O)C1` (stereo partly drawn) [Example 141, cis-3-([1-(3,4-Dichloro-phenyl)-propyl]-{4-[2-(2,5-dioxo-pyrrolidin-1-yl)-ethoxy]-3-methoxy-benzyl}-amino)-cyclobutanecarboxylic acid], the IC50 was 200 nM. As to `COc1cc(CN(C(C)c2ccc(Cl)c(F)c2)[C@H]2C[C@@H](C(=O)O)C2)ccc1OCCN1C(=O)CCC1=O` (stereo partly drawn) [Example 142, cis-3-([1-(4-Chloro-3-fluoro-phenyl)-ethyl]-{4-[2-(2,5-dioxo-pyrrolidin-1-yl)-ethoxy]-3-methoxy-benzyl}-amino)-cyclobutanecarboxylic acid], the IC50 worked out at 120 nM. On the same count and under the same terms, then `Cc1cc(CN([C@H]2C[C@@H](C(=O)O)C2)[C@H](C)c2ccc(Cl)cc2)ccc1CCCN1C(=O)CCC1=O` [Example 143, cis-3-([(R)-1-(4-Chloro-phenyl)-ethyl]-{4-[3-(2,5-dioxo-pyrrolidin-1-yl)-propyl]-3-methyl-benzyl}-amino)-cyclobutanecarboxylic acid], with 3000 nM. The same measure, in the same setting: the figure for `COc1cc(CN(C[C@H]2CC[C@H](C(=O)O)CC2)C(C)c2ccc3c(c2)CCC3)ccc1OCCN1C(=O)CCC1=O` (stereo partly drawn) [Example 144, trans-4-{[{4-[2-(2,5-Dioxo-pyrrolidin-1-yl)-ethoxy]-3-methoxy-benzyl}-(1-indan-5-yl-ethyl)-amino]-methyl}-cyclohexanecarboxylic acid] is 167 nM; for `COc1cc(CN(C[C@H]2CC[C@H](C(=O)O)CC2)C(C)c2ccc3c(c2)CCC3)ccc1OCCN1C(=O)CN(C)C1=O` (stereo partly drawn) [Example 145, trans-4-[((1-Indan-5-yl-ethyl)-{3-methoxy-4-[2-(3-methyl-2,5-dioxo-imidazolidin-1-yl)-ethoxy]-benzyl}-amino)-methyl]-cyclohexanecarboxylic acid] it is 146 nM; for `COc1cc(CN(C[C@H]2CC[C@H](C(=O)O)CC2)[C@H]2CCc3cc(Cl)ccc32)ccc1OCCN1C(=O)C2CC2C1=O` (stereo partly drawn) [Example 146, -4-[(((S)-5-Chloro-indan-1-yl)-{4-[2-(2,4-dioxo-3-aza-bicyclo[3.1.0]hex-3-yl)-ethoxy]-3-methoxy-benzyl}-amino)-methyl]-cyclohexanecarboxylic acid] it is 254 nM. In the case of `COc1cc(CN(C[C@H]2CC[C@H](C(=O)O)CC2)[C@H]2CCc3cc(Cl)ccc32)ccc1OCCN1C(=O)CC2(CCCC2)CC1=O` [Example 147, 4-[(((S)-5-Chloro-indan-1-yl)-{4-[2-(7,9-dioxo-8-aza-spiro[4.5]dec-8-yl)-ethoxy]-3-methoxy-benzyl}-amino)-methyl]-cyclohexanecarboxylic acid], the IC50 is 7000 nM.

Consider `COc1cc(CN(C[C@H]2CC[C@H](C(=O)O)CC2)[C@H]2CCc3c2ccc(Cl)c3F)ccc1OCCN1C(=O)CCC1=O` [Example 148, trans-4-[(((S)-5-Chloro-4-fluoro-indan-1-yl)-{4-[2-(2,5-dioxo-pyrrolidin-1-yl)-ethoxy]-3-methoxy-benzyl}-amino)-methyl]-cyclohexanecarboxylic acid], for which the IC50 stood at 26 nM. Same read-out and setting: then `CCc1cc(CN(C[C@H]2CC[C@H](C(=O)O)CC2)[C@H]2CCc3c2ccc(Cl)c3F)ccc1OCCN1C(=O)CCC1=O` [Example 149, trans-4-[(((S)-5-Chloro-4-fluoro-indan-1-yl)-{4-[2-(2,5-dioxo-pyrrolidin-1-yl)-ethoxy]-3-ethyl-benzyl}-amino)-methyl]-cyclohexanecarboxylic acid], with 165 nM. As to `COc1cc(CN([C@H]2C[C@@H](C(=O)O)C2)[C@H](C)c2ccc(Cl)c(F)c2)ccc1OCCN1C(=O)CCC1=O` [Example 150, cis-3-([(R)-1-(4-Chloro-3-fluoro-phenyl)-ethyl]-{4-[2-(2,5-dioxo-pyrrolidin-1-yl)-ethoxy]-3-methoxy-benzyl}-amino)-cyclobutanecarboxylic acid], the IC50 was found to be 98 nM. Same read-out and setting: then `CCc1cc(CN([C@H]2C[C@@H](C(=O)O)C2)[C@H](C)c2ccc(Cl)c(F)c2)ccc1OCCN1C(=O)CCC1=O` [Example 151, cis-3-([(R)-1-(4-Chloro-3-fluoro-phenyl)-ethyl]-{4-[2-(2,5-dioxo-pyrrolidin-1-yl)-ethoxy]-3-ethyl-benzyl}-amino)-cyclobutanecarboxylic acid], with 457 nM. Take `COc1cc(CN([C@H]2C[C@@H](C(=O)O)C2)[C@H](C)c2ccc(Cl)c(Cl)c2)ccc1OCCN1C(=O)CCC1=O` [Example 152, cis-3-([(R)-1-(3,4-Dichloro-phenyl)-ethyl]-{4-[2-(2,5-dioxo-pyrrolidin-1-yl)-ethoxy]-3-methoxy-benzyl}-amino)-cyclobutanecarboxylic acid]: the IC50 came out at 149 nM.

Regarding `Cc1cc(CN([C@H]2C[C@@H](C(=O)O)C2)[C@H](C)c2ccc(Cl)cc2)ccc1OCCN1C(=O)CN(C)C1=O` [Example 153, cis-3-([(R)-1-(4-Chloro-phenyl)-ethyl]-{3-methyl-4-[2-(3-methyl-2,5-dioxo-imidazolidin-1-yl)-ethoxy]-benzyl}-amino)-cyclobutanecarboxylic acid], the IC50 is 294 nM.

As to `COc1cc(CN(C[C@H]2CC[C@H](C(=O)O)CC2)C(C)c2ccc(C(F)(F)F)cc2)ccc1OCCN1C(=O)CCC1=O` (stereo partly drawn) [Example 154, trans-4-({{4-[2-(2,5-Dioxo-pyrrolidin-1-yl)-ethoxy]-3-methoxy-benzyl}-[1-(4-trifluoromethyl-phenyl)-ethyl]-amino}-methyl)-cyclohexanecarboxylic acid], the IC50 was found to be 70 nM. Same read-out and setting: the figure for `COc1cc(CN(C[C@H]2CC[C@H](C(=O)O)CC2)[C@H]2CCc3cc(Cl)ccc32)ccc1OCCN1C(=O)[C@H]2CC=CC[C@H]2C1=O` [Example 155, trans-4-[(((S)-5-Chloro-indan-1-yl)-{4-[2-((3aS,7aR)-1,3-dioxo-1,3,3a,4,7,7a-hexahydro-isoindol-2-yl)-ethoxy]-3-methoxy-benzyl}-amino)-methyl]-cyclohexanecarboxylic acid; hydrochloride] is 2870 nM; for `COc1cc(CN(C[C@H]2CC[C@H](C(=O)O)CC2)[C@H]2CCc3cc(Cl)ccc32)ccc1OCCN1C(=O)c2ccccc2C1=O` [Example 156, trans-4-[(((S)-5-Chloro-indan-1-yl)-{4-[2-(1,3-dioxo-1,3-dihydro-isoindol-2-yl)-ethoxy]-3-methoxy-benzyl}-amino)-methyl]-cyclohexanecarboxylic acid; hydrochloride] it is 79 nM.

Turning to `Cc1cc(CN(C[C@H]2CC[C@H](C(=O)O)CC2)[C@H]2CCc3c2ccc(Cl)c3F)ccc1OCCN1C(=O)CN(C)C1=O` [Example 157, trans-4-[(((S)-5-Chloro-4-fluoro-indan-1-yl)-{3-methyl-4-[2-(3-methyl-2,5-dioxo-imidazolidin-1-yl)-ethoxy]-benzyl}-amino)-methyl]-cyclohexanecarboxylic acid], the IC50 came out at 71 nM. On the same count and under the same terms, then `COc1cc(CN(CC2CC(C(=O)O)C2)[C@H]2CCc3cc(Cl)ccc32)ccc1OCCN1C(=O)CCC1=O` (stereo partly drawn) [Example 158, 3-[(((S)-5-Chloro-indan-1-yl)-{4-[2-(2,5-dioxo-pyrrolidin-1-yl)-ethoxy]-3-methoxy-benzyl}-amino)-methyl]-cyclobutanecarboxylic acid], with 1060 nM; and `COc1cc(CN([C@H]2C[C@@H](C(=O)O)C2)[C@H](C)c2ccc3c(c2)CCC3)ccc1OCCn1c(=O)ccn(C)c1=O` [Example 159, cis-3-(((R)-1-Indan-5-yl-ethyl)-{3-methoxy-4-[2-(3-methyl-2,6-dioxo-3,6-dihydro-2H-pyrimidin-1-yl)-ethoxy]-benzyl}-amino)-cyclobutanecarboxylic acid], with 544 nM.

The same test, now with this note: read-out: % at 10 μM; at 10 μM; displacement of 125I-CXCL10.
`COc1cc(CN([C@H]2C[C@H](C(=O)O)C2)[C@H](C)c2ccc3c(c2)CCC3)ccc1OCCn1c(=O)ccn(C)c1=O` [Example 160, trans-3-(((R)-1-Indan-5-yl-ethyl)-{3-methoxy-4-[2-(3-methyl-2,6-dioxo-3,6-dihydro-2H-pyrimidin-1-yl)-ethoxy]-benzyl}-amino)-cyclobutanecarboxylic acid]: the inhibition at 10 µM is 26%.
